Bridge positions count the residues as written; N and C are the ends. Ends that are not written are not given here. Peptide text beside a SMILES is read from it. I, II: the chains in the order shown.
Assays:
TAPL [1] = molecular target: T1, TAPL (Homo sapiens, UniProt Q9NP78); test: Peptide transport into TAPL proteoliposomes; type: biochemical; details: 3 mM ATP, 15 min, 37 °C
T1 construct: Human coreTAPL (Q9NP78 UniProt, amino acid 143–766) fused C-terminally to mVenus; made in house; host or cells: Pichia pastoris SMD1168-His+
T1 sequence (Q9NP78 143-766): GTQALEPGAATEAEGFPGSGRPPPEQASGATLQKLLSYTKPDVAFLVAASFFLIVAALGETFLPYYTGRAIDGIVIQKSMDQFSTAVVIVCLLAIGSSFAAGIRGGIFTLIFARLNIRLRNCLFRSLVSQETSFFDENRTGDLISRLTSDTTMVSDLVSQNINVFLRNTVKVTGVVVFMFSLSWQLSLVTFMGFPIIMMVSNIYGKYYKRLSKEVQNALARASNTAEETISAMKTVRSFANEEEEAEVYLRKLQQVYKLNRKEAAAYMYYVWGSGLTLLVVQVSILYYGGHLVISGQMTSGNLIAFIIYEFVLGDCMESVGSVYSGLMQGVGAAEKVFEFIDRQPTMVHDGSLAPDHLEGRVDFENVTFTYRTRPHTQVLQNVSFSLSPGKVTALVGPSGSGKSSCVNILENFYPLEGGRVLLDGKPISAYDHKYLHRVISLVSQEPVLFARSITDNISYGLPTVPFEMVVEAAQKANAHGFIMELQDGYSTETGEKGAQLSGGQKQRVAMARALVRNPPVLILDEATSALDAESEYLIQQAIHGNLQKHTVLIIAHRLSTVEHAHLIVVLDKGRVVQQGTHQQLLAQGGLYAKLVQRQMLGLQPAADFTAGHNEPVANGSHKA
Procedure: (A) Proteoliposomes (0.5 mg/ml lipids) were incubated with 10 µM of 9-mer^FL peptide and 3 mM ATP, 3 mM ADP, without any nucleotide (−) or with 3 mM ATP in the presence of ortho-vanadate (Vi, 500 µM). […] […] Transport was performed in triplicates with error bars indicating SD.
CoreTAPL fused C-terminally to mVenus was produced in P. pastoris by large scale expression in a 7.5 liter Labfors4 reactor (Infors HT, Einsbach, Germany) by fed batch method and cell pellets were stored at −80 °C[14],[44]. Core[…] fused C-terminally to mVenus was produced in P. pastoris in Erlenmeyer flasks. TmrAB from T. thermophilus was expressed in Escherichia coli and cell pellets were stored at −80 °C[30]. CoreTAPL and TmrAB were purified and reconstituted (40:1 (wt/wt) lipid to protein) as described into unilamellar liposomes composed of E. coli polar lipids and DOPC (7:3 (wt/wt); Avanti Polar Lipids), which were ultrasonicated, five times frozen and thawed and extruded through a 400 nm polycarbonate filter (Avestin, Mannheim, Germany)[13],[14],[30]. Proteoliposomes were snap frozen in liquid nitrogen and stored at −80 °C. […] Concentration of coreTAPL and core[…] was determined by specific absorption of mVenus (ε515 = 45.950 M^−1cm^−1). For calculation of TmrAB concentration ε280 = 159.630 M^−1cm^−1 was applied.

TAPL [2] = molecular target: T1, TAPL; test: NTP hydrolysis by TAPL, malachite green based assay; type: biochemical
Procedure: Kinetics were recorded under steady-state conditions in which peptide accumulation in proteoliposomes is far below saturation (Figs S2,S5).
ATP hydrolysis was determined by malachite green based assay in the absence or presence of 100 µM peptide (filled bar) or ortho-vanadate (500 µM, white bar) (A) or with increasing peptide concentrations (B). Hydrolysis rates of 16-mer and 18-mer peptide were fitted with equation 6. IC50 values, Hill coefficients and kcat are depicted in Table 1. […] All experiments were performed in triplicates, error bars indicate SD.
The reaction was started by the addition of NTP. Background and autohydrolysis were determined with 500 µM ortho-vanadate or in the absence of protein, respectively. Hydrolysis was stopped by the addition of 20 mM H2SO4, supplemented with malachite green solution (3 mM malachite green, 0.2% (v/v) Tween 20, 1.5% (w/v) ammoniummolybdate) and absorption was detected after 10 min incubation at room temperature at 620 nm using a microplate reader (CLARIOstar, BMG LABTECH). IC50 values for peptides were determined by6 v=vmin+vmax−vmin/1+10^(LOGIC50−[I])⋅n where v represents the peptide inhibitor [I] dependent hydrolysis rate, vmax the maximal hydrolysis rate in the absence of peptide, vmin the minimal hydrolysis rate at saturating peptide concentrations and n the Hill slope. IC50 represents the half maximal inhibitory peptide concentration.

TAPL [3] = molecular target: T1, TAPL; test: NTP dependent peptide transport by TAPL; type: biochemical; details: 37 °C
Procedure: Subsequently, we performed Michaelis-Menten kinetics of 9-mer peptide (100 µM) transport using increasing ATP and GTP concentrations. […] Additionally, we quantified the nucleotide hydrolysis kinetics of ATP and GTP in the presence and absence of the 9-mer peptide. […] Moreover, we assume a subtle difference in the cross-talk between the nucleotide binding domain and the transmembrane domain, which is caused by the type of purine base.
(A) NTP dependent peptide transport was performed with 9-mer^FL peptide (100 µM). (B) NTP hydrolysis was analyzed in the presence of 9-mer peptide (100 µM) by radioactive based assay. Experiments were performed in triplicates, error bars indicate SD.

Pdr5 = details: cited from earlier work
Text: Both nucleotides show the same Km and kcat values in respect of NTP hydrolysis. […] NTP dependent transport was found also for other ABC transporters. […] The full-length ABC transport Pdr5 from yeast hydrolyzes GTP and even UTP, but ...

[4] = test system: Nc1ncnc2c1ncn2[C@@H]1O[C@H](COP(=O)(O)OP(=O)(O)OP(=O)(O)O)[C@@H](O)[C@H]1O; test: purified protein, by the assay type; details: other: 68 °C, 10 min, 9-mer^FL peptide (30 µM), triplicates, SD
[5] = test system: Nc1nc2c(ncn2[C@@H]2O[C@H](COP(=O)(O)OP(=O)(O)OP(=O)(O)O)[C@@H](O)[C@H]2O)c(=O)[nH]1; test: purified protein, by the assay type; details: other: 68 °C, 10 min, 9-mer^FL peptide (30 µM), triplicates, SD
MRP1 = details: cited from earlier work
Text: Other ABC transporters like P-glycoprotein have a biphasic substrate dependent ATPase activity. […] Basal ATPase activity of MRP1 is 3-fold stimulated by its substrate leucotriene C4, which forms contacts to both halfs o ...

CC(C)C[C@H](NC(=O)[C@H](CCC(=O)O)NC(=O)[C@@H](NC(=O)[C@H](CO)NC(=O)[C@H](CCCCNC(=O)[C@H](CCCCN)NC(=O)[C@H](CCCCN)NC(=O)[C@H](CCCCN)NC(=O)[C@H](CCCCN)NC(=O)[C@H](CCCCN)NC(=O)[C@H](CCCCN)NC(=O)[C@H](CCCCN)NC(=O)[C@@H](N)CCCCN)NC(=O)[C@H](CS)NC(=O)[C@H](Cc1ccc(O)cc1)NC(=O)[C@@H](N)CCCNC(=N)N)[C@@H](C)O)C(=O)O [16-mer, RYCK(K8)STEL] (I: H-KKKKKKKK / II: H-RYCKSTEL-OH; amide I:C-II:4; N-terminus assumed)
kcat(Pep) turnover number of peptide transport (TAPL [1]; proteoliposomes, pH 7.5, fluorescein labeled (FL) peptides used, triplicates, SD, listed as 16-mer^FL): 0.00417 s⁻¹ | ATP per translocated peptide (TAPL [2]; ATP hydrolysis at saturating peptide divided by peptide transport turnover): 100 ATP per translocated peptide | Hill slope of ATP hydrolysis inhibition (TAPL [2]; proteoliposomes, 3 mM ATP, 15 min, 37 °C, malachite green, unlabeled peptides): −2.09 ± 0.73 | kcat(ATP) rate constant of ATP hydrolysis (TAPL [2]; under saturating peptide concentration, 3 mM ATP, 15 min, 37 °C, malachite green, unlabeled peptides): 0.367 ± 0.067 s⁻¹

RRYQKSTELRRYQKSTEL [18-mer]
reduction of ATP hydrolysis (TAPL [2]; 100 µM peptide, 3 mM ATP, 15 min, 37 °C, vs absence of peptide): 50%

Nc1ncnc2c1ncn2[C@@H]1O[C@H](COP(=O)(O)OP(=O)(O)OP(=O)(O)O)[C@@H](O)[C@H]1O [ATP]
fold turnover number of peptide transport, ATP over GTP (TAPL [3]; ATP vs GTP, 9-mer peptide (100 µM)): 6 fold | nucleotide hydrolysis by Pdr5 (in words) (Pdr5; GTP, UTP, ATP): highest efficiency

[O]=[V]([O-])([O-])[O-] [ortho-vanadate]
inhibition of GTP dependent peptide transport (in words) (TAPL [3]; ortho-vanadate 500 µM, 3 mM GTP, 10 µM 9-mer^FL, 15 min): inhibited | inhibition of ATP dependent peptide translocation (in words) (TAPL [1]; ortho-vanadate 500 µM, 10 µM 9-mer^FL): specifically inhibited | effect on basal ATP hydrolysis (in words) (TAPL [2]; 3 mM ATP, 15 min, 37 °C, malachite green, peptide up to 100 µM or ortho-vanadate 500 µM): blocked | effect on GTP hydrolysis (in words) (TAPL [2]; 3 mM GTP, 15 min, 37 °C, malachite green, 9-mer peptide 100 µM or ortho-vanadate 500 µM): inhibited

TmrAB (Thermus thermophilus HB27)
Km ([4]; radioactive assay): 661 ± 176 µM | kcat ([4]; radioactive assay): 2.25 ± 0.217 s⁻¹ | Km ([4]; pH 7.5): 782 ± 213 µM | kcat ([4]; pH 7.5): 0.105 ± 0.01 s⁻¹ | Km ([5]; radioactive assay): 617 ± 144 µM | kcat ([5]; radioactive assay): 2.47 ± 0.2 s⁻¹ | Km ([5]; pH 7.5): 391 ± 136 µM | kcat ([5]; pH 7.5): 0.0167 ± 0.00167 s⁻¹

CCCCC/C=C\C\C=C/C=C/C=C/[C@@H](SC[C@H](NC(=O)CC[C@H](N)C(=O)O)C(=O)NCC(=O)O)[C@@H](O)CCCC(=O)O [leucotriene C4]
fold stimulation of basal ATPase activity (MRP1): 3 fold

Clc1ccccc1C(c1ccccc1)(c1ccccc1)n1ccnc1 [clotrimazole]
effect on Pdr5 ATPase activity (in words) (Pdr5; ATP hydrolysis): inhibited | effect on Pdr5 GTP and UTP hydrolysis (in words) (Pdr5; GTP and UTP hydrolysis): not affected

Source: paper PMC6695453, “Peptide translocation by the lysosomal ABC transporter TAPL is regulated by coupling efficiency and activation energy” (Scientific Reports, 2019)
